Assay results as given in patent EP0768085A1, “ANTIBACTERIAL AGENT” (DAIICHI PHARMACEUTICAL CO., LTD., priority 1994, dated 1996).
In brackets after ≈: the same amount, converted by molar mass.

Experiments:
Assay type in all cases: cell-based
[1] = test system: methicillin-resistant Staphylococcus aureus (MRSA) from humans; test: Antibacterial activity (IC), agar as in Example 8 (Example 19, Table 52); conditions: 18 h
Method: (§1) The antibacterial action was evaluated by the inhibitory concentration (hereinafter abbreviated as IC) at which propagation of the bacteria cultured at 37°C for 18 hours was inhibited. Inhibition was determined by the turbidity of the medium. The expressions "IC≤100", "≤10", and "≤1" indicate that MIC-equivalent values obtained at the succesive […] dilution of the sample are 100-10 µg/ml, 10-1 µg/ml, and not more than 1 µg/ml, respectively. […] (In the subsequent Examples, the same rule applies correspondingly.) Table 39
(§2) A suitable amount of a sample was dissolved in dimethylsulfoxide (DMSO), after which the resulting solution was diluted with the same amount of sterilized distilled water to prepare a bulk sample of 1,000 µg/ml. Separately, a bacterial liquid for the test (methicillin-resistant Staphylococcus aureus (MRSA) isolated from humans) which had been cultured in Mueller-Hinton broth (product of DIFCO) was prepared and inoculated to a Mueller-Hinton agar (product of DIFCO) containing the sample so that the final inoculation amount of 10^6 CFU/ml was achieved. The final concentrations of the samples were 100, 10, and 1 µg/ml.
(§3) After culturing at 37°C for 18 hours, the antibacterial activity was evaluated in terms of IC in a manner similar to that described in Example 4.
In a manner similar to that described in Example 8, antibacterial activity of a variety of ketonitrile derivatives shown in Table 52 was measured. The bacterium used for the test was methicillin-resistant Staphylococcus aureus (MRSA) from humans.

Pasteurella from fish = test: Antibacterial activity (IC), agar as in Example 8, media with 1.5% NaCl, 25°C (Example 20, Tables 53-55); conditions: for MIC: Pasteurella piscicida KP94-02
Method: as §1, §2, §3
(§4) In a manner similar to that described in Example 8, antibacterial activity of a variety of ketonitrile derivatives shown in Tables 53-55 was measured. The bacteria used for the test were Enterococcus and Pasteurella from fish. The culture conditions were such that the media contained 1.5% NaCl, and the culture temperature was 25°C.

Enterococcus from fish = test: as above; conditions: for MIC: Enterococcus Seriolicida SE94-002
Method: as §1, §2, §3, §4

[2] = test system: Pasteurella multocida (Kobe-6); test: Antibacterial activity (IC), agar as in Example 8 (Example 17, Table 50); conditions: 18 h, origin pig
Method: as §1, §2, §3
In a manner similar to that described in Example 8, antibacterial activity of the invention compound was determined. The bacterium used for the test was Pasteurella Kobe-6 (origin: pig, Pasteurella multocida).

[3] = test system: Streptococcus aureus (TI-1); test: Antibacterial activity (IC), agar as in Example 8 (Example 16, Table 49); conditions: 18 h
Method: as §1, §2, §3
In a manner similar to that described in Example 8, antibacterial activity of the invention compound was determined. The bacterium used for the test was […] aureus (TI-1).

[4] = test system: Staphylococcus aureus (209-P); test: Antibacterial activity (IC), agar as in Example 8 (Example 15, Table 48); conditions: 18 h
Method: as §1, §2, §3
The bacterium used for the test was Staphylococcus aureus (209-P).

[5] = Enterococcus Seriolicida KG86050
[6] = Enterococcus Seriolicida MS89060
[7] = Enterococcus Seriolicida MS89064
[8] = Enterococcus Seriolicida MS89066
[9] = Enterococcus Seriolicida MS89068
[10] = Enterococcus Seriolicida SE94-001
[11] = Enterococcus Seriolicida SE94-003
[12] = Enterococcus Seriolicida SE94-004
[13] = Enterococcus Seriolicida SE94-005

SMILES	MIC ([1]; MRSA strain 891179)	MIC ([1]; MRSA strain 891185)	MIC ([1]; MRSA strain 891187)	MIC ([1]; MRSA strain 891192)	MIC ([1]; MRSA strain 900048)	MIC (Pasteurella from fish)	IC (Enterococcus from fish; Enterococcus Seriolicida HI)	IC (Enterococcus from fish; [5])	IC (Enterococcus from fish; [6])	IC (Enterococcus from fish; [7])	IC (Enterococcus from fish; [8])	IC (Enterococcus from fish; [9])	IC (Enterococcus from fish; [10])	MIC (Enterococcus from fish)	IC (Enterococcus from fish; [11])	IC (Enterococcus from fish; [12])	IC (Enterococcus from fish; [13])	MIC [2]	MIC [3]	MIC [4]	also measured
CC(Oc1cccc(Oc2ccc(C(F)(F)F)cc2Cl)c1)C(=O)C(C#N)c1ccccc1 (stereo not drawn) [Compound No. 105, 4-[3-(2-chloro-4-trifluoromethylphenoxy)phenoxy]-3-oxo-2-phenylpentanonitrile]	1 to 10 µg/mL (≈ 2.17 to 21.7 µM)	1 to 10 µg/mL (≈ 2.17 to 21.7 µM)	1 to 10 µg/mL (≈ 2.17 to 21.7 µM)	1 to 10 µg/mL (≈ 2.17 to 21.7 µM)	1 to 10 µg/mL (≈ 2.17 to 21.7 µM)	10 to 100 µg/mL (≈ 21.7 to 217 µM)	≤10 (10-1 µg/ml)	≤10 (10-1 µg/ml)	≤10 (10-1 µg/ml)	≤10 (10-1 µg/ml)	≤10 (10-1 µg/ml)	≤10 (10-1 µg/ml)	≤10 (10-1 µg/ml)	1 to 10 µg/mL (≈ 2.17 to 21.7 µM)	≤10 (10-1 µg/ml)	≤10 (10-1 µg/ml)	≤10 (10-1 µg/ml)	10 to 100 µg/mL (≈ 21.7 to 217 µM)	1 to 10 µg/mL (≈ 2.17 to 21.7 µM)	1 to 10 µg/mL (≈ 2.17 to 21.7 µM)	MIC ([1]; MRSA strain 900056): 1 to 10 µg/mL (≈ 2.17 to 21.7 µM); IC (Pasteurella from fish; Pasteurella piscicida KP94-04): ≤100 (MIC-equivalent values obtained at the succesive 2-fold dilution of the sample are 100-10 µg/ml); IC (Pasteurella from fish; Pasteurella piscicida KP94-05): ≤100 (MIC-equivalent values obtained at the succesive 2-fold dilution of the sample are 100-10 µg/ml); IC (Pasteurella from fish; Pasteurella piscicida KP94-06): ≤100 (MIC-equivalent values obtained at the succesive 2-fold dilution of the sample are 100-10 µg/ml)
CC(Oc1cc(Oc2ccc(C(F)(F)F)cc2Cl)cc(Oc2ccc(C(F)(F)F)cc2Cl)c1)C(=O)C(C#N)c1cccc(Br)c1 (stereo not drawn) [compound 211]	1 to 10 µg/mL (≈ 1.36 to 13.6 µM)	1 to 10 µg/mL (≈ 1.36 to 13.6 µM)	1 to 10 µg/mL (≈ 1.36 to 13.6 µM)	1 to 10 µg/mL (≈ 1.36 to 13.6 µM)	1 to 10 µg/mL (≈ 1.36 to 13.6 µM)	10 to 100 µg/mL (≈ 13.6 to 136 µM)	≤10 (10-1 µg/ml)	≤10 (10-1 µg/ml)	≤10 (10-1 µg/ml)	≤10 (10-1 µg/ml)	≤10 (10-1 µg/ml)	≤10 (10-1 µg/ml)	≤10 (10-1 µg/ml)	1 to 10 µg/mL (≈ 1.36 to 13.6 µM)	≤10 (10-1 µg/ml)	≤10 (10-1 µg/ml)	≤10 (10-1 µg/ml)	1 to 10 µg/mL (≈ 1.36 to 13.6 µM)	1 to 10 µg/mL (≈ 1.36 to 13.6 µM)	1 to 10 µg/mL (≈ 1.36 to 13.6 µM)	MIC ([1]; MRSA strain 900056): 1 to 10 µg/mL (≈ 1.36 to 13.6 µM); IC (Pasteurella from fish; Pasteurella piscicida KP94-04): ≤100 (MIC-equivalent values obtained at the succesive 2-fold dilution of the sample are 100-10 µg/ml); IC (Pasteurella from fish; Pasteurella piscicida KP94-05): ≤100 (MIC-equivalent values obtained at the succesive 2-fold dilution of the sample are 100-10 µg/ml); IC (Pasteurella from fish; Pasteurella piscicida KP94-06): ≤100 (MIC-equivalent values obtained at the succesive 2-fold dilution of the sample are 100-10 µg/ml)
CC(Oc1cccc(Oc2ccc(Br)cc2F)c1)C(=O)C(C#N)c1ccc(Cl)c(Cl)c1 (stereo not drawn) [Compound No. 109, 4-[3-(4-bromo-2-fluorophenoxy)phenoxy]-2-(3,4-dichlorophenyl)-3-oxopentanonitrile]	1 to 10 µg/mL (≈ 1.91 to 19.1 µM)	1 to 10 µg/mL (≈ 1.91 to 19.1 µM)	1 to 10 µg/mL (≈ 1.91 to 19.1 µM)	1 to 10 µg/mL (≈ 1.91 to 19.1 µM)	1 to 10 µg/mL (≈ 1.91 to 19.1 µM)	1 to 10 µg/mL (≈ 1.91 to 19.1 µM)	≤10 (10-1 µg/ml)	≤10 (10-1 µg/ml)	≤10 (10-1 µg/ml)	≤10 (10-1 µg/ml)	≤10 (10-1 µg/ml)	≤10 (10-1 µg/ml)	≤10 (10-1 µg/ml)	1 to 10 µg/mL (≈ 1.91 to 19.1 µM)	≤10 (10-1 µg/ml)	≤10 (10-1 µg/ml)	≤10 (10-1 µg/ml)	1 to 10 µg/mL (≈ 1.91 to 19.1 µM)	≤ 1 µg/mL	1 to 10 µg/mL (≈ 1.91 to 19.1 µM)	MIC ([1]; MRSA strain 900056): 1 to 10 µg/mL (≈ 1.91 to 19.1 µM)
CC(Oc1cccc(Oc2ccc(C(F)(F)F)cc2Cl)c1)C(=O)C(C#N)c1cccc(C(F)(F)F)c1 (stereo not drawn) [Compound No. 106, 4-[3-(2-chloro-4-trifluoromethylphenoxy)phenoxy]-3-oxo-2-(3-trifluoromethylphenyl)pentanonitrile]						10 to 100 µg/mL (≈ 18.9 to 189 µM)	≤10 (10-1 µg/ml)	≤10 (10-1 µg/ml)	≤10 (10-1 µg/ml)	≤10 (10-1 µg/ml)	≤10 (10-1 µg/ml)	≤10 (10-1 µg/ml)	≤10 (10-1 µg/ml)	1 to 10 µg/mL (≈ 1.89 to 18.9 µM)	≤10 (10-1 µg/ml)	≤10 (10-1 µg/ml)	≤10 (10-1 µg/ml)	10 to 100 µg/mL (≈ 18.9 to 189 µM)	1 to 10 µg/mL (≈ 1.89 to 18.9 µM)	1 to 10 µg/mL (≈ 1.89 to 18.9 µM)	IC (Pasteurella from fish; Pasteurella piscicida KP94-04): ≤100 (MIC-equivalent values obtained at the succesive 2-fold dilution of the sample are 100-10 µg/ml); IC (Pasteurella from fish; Pasteurella piscicida KP94-05): ≤100 (MIC-equivalent values obtained at the succesive 2-fold dilution of the sample are 100-10 µg/ml); IC (Pasteurella from fish; Pasteurella piscicida KP94-06): ≤100 (MIC-equivalent values obtained at the succesive 2-fold dilution of the sample are 100-10 µg/ml)
